# Data: US20220226484A1, “THERAPEUTIC PEPTIDES” (COHBAR, INC., priority 2019, published 2022)
# Positions of bridges follow the written chain, without caps; N, C: chain ends. Primed or numbered codes have the meaning given here. Chains are numbered I, II in the order given. No end group written: not given here. PEG12′ = not defined here
# What was measured:
# [1] = tested on: human PC-3 tumor cells; test: Mouse PC-3 xenograft model of prostate cancer; format: in vivo; settings: 5 mg/kg daily intraperitoneal
# Description: Male BALB/c nude mice, 6-7 weeks of age, 20±2 g were inoculated subcutaneously in the right lower flank with a single volume of 0.1 ml of cell suspension containing about 1×10^7 human PC-3 tumor cells. Animals were weighed and randomized into treatment groups when the mean tumor size was around 130 mm^3. Groups of 10 animals received daily injections of test article (5 mg/kg) by intraperitoneal administration. Tumor size was measured twice per week in 2 dimensions using a calipers and tumor volume calculated by standard methods. The study was concluded on day 21 post initial-dosing (day 0).
# [2] = tested on: human lung fibroblasts; test: Fibroblast-to-myofibroblast transition assay, alpha smooth muscle actin expression; format: cell-based; settings: 1.25 ng/ml TGF-β1, 72 hours
# From the text: The effect of the peptides on fibrosis can be assessed in vitro using a fibroblast-to-myofibroblast transition (FMT) assay and monitoring alpha smooth muscle actin ([…]SMA) produced by cultured cells such as healthy primary human lung fibroblast cells. Assay performed by Charles River Discovery Research Services UK Limited (Essex, UK). Transforming growth factor beta-1 (TGF-β1) stimulated alpha smooth muscle actin (αSMA) expression in human lung fibroblasts derived from three healthy donors was used to assess anti-fibrotic activity. Peptides were prepared as 10 mM stock in DMSO and tested in eight (8)-step concentration response curves using 0.5 Log M dilution steps with 10 μM as highest concentration (0.1% DMSO final). Transforming Growth Factor beta (TGF-β1) was used as a potent inducer of FMT as measured by increased αSMA expression. Isolated lung fibroblasts were seeded in 96-well or 384-well PureCol coated plates. Five days post-seeding, medium was refreshed, and peptides, reference compounds, and controls are added to the cells. After one hour, 1.25 ng/ml TGF-β1 was added to induce FMT. Expression of αSMA was measured 72 hours later by immunostaining, assessed by high content imaging on an IN Cell Analyzer 2200 (GE Healthcare) and quantified using an in-house developed algorithm with the IN Cell developer software (GE Healthcare). The output of the algorithm represents the staining intensity multiplied by the stained area (DxA levels). Co-staining of cell nuclei with DAPI was performed to quantify cell number, a measure of potential toxicity. The αSMA expression levels observed using 0.1% DMSO (negative control) were used to calculate percentage inhibition of αSMA by each peptide.
# [3] = tested on: RENCA cells (renal adenocarcinoma cell line); test: Tumor growth in RENCA syngeneic mouse model; format: in vivo; settings: 10 mg/kg daily intraperitoneal, female BALB/c mice, 10 per group
# Description: The effect of the peptides on tumor growth can be assessed by monitoring tumor volume in syngeneic mouse cancer models such as RENCA, a mouse tumor model using a renal adenocarcinoma cell line. RENCA cells were grown in culture. On Day 0, 1.0×10^6 cells in 100 μl PBS were implanted into the mammary fat pad of female BALB/c mice. […] Test peptides were administered daily at a dose of 10 mg/kg by intraperitoneal administration. Primary tumor volumes were determined by caliper measurements twice a week. The growth rate of each tumor was calculated as the percent of the mean tumor growth of tumors observed in the control vehicle-treated group, as determined on Day 20 of the study.
# [4] = tested on: bleomycin-induced lung fibrosis in male C57BL/6 mice; test: Therapeutic mouse model of idiopathic pulmonary fibrosis (bleomycin); format: in vivo; settings: peptide 5 mg/kg/day intraperitoneal, nintedanib 60 mg/kg/day PO
# From the text: The effect of the peptides on the progression of established lung fibrosis can be assessed by monitoring lung fibrosis, lung weight, inflammatory cells in bronchoalveolar lavage fluid (BALF), soluble collagen in BALF, and body weight change in a therapeutic mouse model of idiopathic pulmonary fibrosis. Lung fibrosis was induced in lungs of male C57BL/6 mice between the ages of 6 to 8 weeks by nasophayngeal administration of bleomycin (1.5 U/kg using bleomycin clinical formulation diluted in PBS). A control group of animals were administered saline by the nasopharyngeal route (no-bleomycin control group). After one week, bleomycin-treated animals were randomized to treatment groups (N=10 per group) by body weight and treated daily with vehicle control, nintedanib positive control (60 mg/kg/day PO) or peptide (5 mg/kg/day by intraperitoneal injection). After 14 days of treatment (Day 21), lungs were removed and weighed. The post-caval lobe was separated and snap frozen. The lungs were flushed with Hanks Buffer and bronchoalveolar lavage fluid (BALF) was harvested from each animal. Total BALF leukocyte were counted. Slides were prepared from the remaining BALF leukocytes, fixed and stained with May Geimsa stain and the differential counts were recorded manually. BALF was evaluated for soluble collagen using a Sircol assay. Lungs were fixed in 10% neutral buffered formalin (NBF) for histopathological analysis. Fibrosis was assessed by histopathological analysis of H&E stained mouse lungs using an Ashcroft scoring system.
# [5] = tested on: DSS-induced colitis in female C57BL/6NTac mice; test: DSS-induced colitis mouse model of inflammatory bowel disease; format: in vivo; settings: 3% DSS 8 days; peptides 10 mg/kg/day intraperitoneal; CsA 80 mg/kg/day oral; AUC over 8 days
# Description: The effect of the peptides on inflammatory disease can be assessed by monitoring fecal blood, stool consistency, and body weight loss in a DSS-induced colitis mouse model. Colitis was induced in female C57BL/6NTac mice (9-11 weeks old) by continuous ad libitum oral administration of dextran sodium sulfate (DSS) 3% in sterile drinking water for 8 days. Control (No DSS) mice received sterile water instead of DSS solution. Peptides were administered intraperitoneally once daily at 10 mg/kg/day for 8 days in combination with oral DSS. […] Daily assessments included body weight loss score, fecal blood score, stool consistency score, and composite disease activity index (DAI) score, based on the first three parameters combined. Scores recorded on each day over 8 days were used to calculate area under the curve (AUC) values for each endpoint in individual animals.
substance,measurement,setting,value
RVIRMCLGVGLLGDLAG [SEQ ID NO: 3],Mean Tumor Volume,"[1]; Time 0 Days, N = 10",131 mm^3
same,Mean Tumor Volume,[1]; Time 4 Days,136 mm^3
same,Mean Tumor Volume,[1]; Time 7 Days,203 mm^3
same,Mean Tumor Volume,[1]; Time 11 Days,270 mm^3
same,Mean Tumor Volume,[1]; Time 14 Days,400 mm^3
same,Mean Tumor Volume,[1]; Time 18 Days,596 mm^3
same,Mean Tumor Volume,[1]; Time 22 Days,806 mm^3
RVIRMCLGVGLLGDLAGK{PEG12} (chain 1 RVIRMCLGVGLLGDLAGK(PEG12′); chain 2 RVIRMCLGVGLLGDLAGK(PEG12′); disulfide I:6-II:6) [SEQ ID NO: 28],Mean Percent Inhibition of alpha-SMA Expression,[2]; peptide 0.00316 μM,6.25%
same,Mean Percent Inhibition of alpha-SMA Expression,[2]; peptide 0.01 μM,1.25%
same,Mean Percent Inhibition of alpha-SMA Expression,[2]; peptide 0.0316 μM,−5.63%
same,Mean Percent Inhibition of alpha-SMA Expression,[2]; peptide 0.1 μM,−5.63%
same,Mean Percent Inhibition of alpha-SMA Expression,[2]; peptide 0.316 μM,4.06%
same,Mean Percent Inhibition of alpha-SMA Expression,[2]; peptide 1 μM,28.1%
same,Mean Percent Inhibition of alpha-SMA Expression,[2]; peptide 3.16 μM,81.6%
same,Mean Percent Inhibition of alpha-SMA Expression,[2]; peptide 10 μM,88.1%
same,Mean (SEM) Percent of Control Group Tumor Growth at Day 20,[3],57.3 (14.4) Percent
same,Mean (SEM) Leukocyte Count in BALF (Percent of Bleomycin Control),"[4]; Day 21, 14 days of treatment",72.2 (5.96) Percent
same,Mean (SEM) Lung Weight (Percent of Bleomycin Control),"[4]; Day 21, 14 days of treatment",73.8 (3.13) Percent
same,Mean (SEM) Percent Body Weight Change from Baseline,"[4]; Day 21, 14 days of treatment",2.71 (1.48) Percent
same,Mean (SEM) Collagen Content in BALF (Percent of Bleomycin Control),"[4]; Sircol assay, Day 21",49.6 (6.48) Percent
same,Mean (SEM) Ashcroft Score (Percent of Bleomycin Control),"[4]; histopathology, Day 21",80.73 (7.24) Percent
same,Mean (SEM) Body Weight Loss Score AUC,[5],1.70 (0.63)
same,Mean (SEM) Composite Disease Activity Index (DAI) Score AUC,[5],16.6 (1.25)
same,Mean (SEM) Fecal Blood Score AUC,[5],10.3 (0.82)
same,Mean (SEM) Stool Consistency Score AUC,[5],4.60 (0.74)
